Measured values: patent US10696691B2, “BACE1 inhibitors” (Hoffmann-La Roche Inc., priority 2015, dated 2020)

Biological target: T1, BACE1 (Homo sapiens, UniProt P56817)
T1 construct: endogenous in cells; host or cells: HEK293 APP cells
Experiment: Cellular Aβ-lowering assay (Abeta 40 AlphaLISA, HEK293 APP cells)
Format: cell-based
Details: 18-20 hrs incubation, Aβ 40 in culture supernatants, read-out: BACE1 cell act. Aβ40 IC50
Description: Cellular Aβ-Lowering Assay:
The Abeta 40 AiphaLISA Assay can be used. The HEK293 APP cells were seeded in 96 well Microtiter plates in cell culture medium (Iscove's, plus 10% (v/v) fetal bovine serum, penicillin/streptomycin) to about 80% confluency and the compounds were added at a 3× concentration in ⅓ volume of culture medium (final DMSO concentration was kept at 1% v/v). After 18-20 hrs incubation at 37° C. and 5% CO2 in a humidified incubator, the culture supernatants were harvested for the determination of Aβ 40 concentrations using Perkin-Elmer Human Amyloid beta 1-40 (high specificity) Kit (Cat # AL275C).
In a Perkin-Elmer White Optiplate-384 (Cat #6007290), 2 ul culture supernatants were combined with 2 μl of a 10× AlphaLISA Anti-hABAcceptor beads+Biotinylated Antibody Anti-AD 1-40 Mix (50 μg/mL/5 nM). After 1 hour room temperature incubation, 16 μl of a 1.25× preparation of Streptavidin (SA) Donor beads (25 μg/mL) were added and incubated for 30 minutes in the Dark. Light Emission at 615 nm was then recorded using EnVision-Alpha Reader. Levels of Aβ 40 in the culture supernatants were calculated as percentage of maximum signal (cells treated with 1% DMSO without inhibitor). The IC50 values were calculated using the Excel XLfit software.

T1 sequence (P56817 46-501): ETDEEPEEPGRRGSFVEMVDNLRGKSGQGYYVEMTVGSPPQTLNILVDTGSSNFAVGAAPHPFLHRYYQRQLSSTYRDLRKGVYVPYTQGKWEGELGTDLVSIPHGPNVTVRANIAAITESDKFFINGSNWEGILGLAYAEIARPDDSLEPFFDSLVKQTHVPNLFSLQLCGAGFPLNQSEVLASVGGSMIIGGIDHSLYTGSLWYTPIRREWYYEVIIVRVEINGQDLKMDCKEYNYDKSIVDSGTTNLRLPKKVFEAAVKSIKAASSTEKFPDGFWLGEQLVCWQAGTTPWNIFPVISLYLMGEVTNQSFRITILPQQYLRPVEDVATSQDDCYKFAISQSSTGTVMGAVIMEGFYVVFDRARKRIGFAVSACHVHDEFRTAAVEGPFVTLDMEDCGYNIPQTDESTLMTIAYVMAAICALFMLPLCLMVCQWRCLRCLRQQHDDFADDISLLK

IC50 | Compound
1.4 nM | CC1(C)C(N)=N[C@](C)(c2cc(NC(=O)c3ccc(OCC(F)(F)C(F)F)cn3)ccc2F)[C@@H]2CCN=[S@@]21=O [Example 12AB, N-(3-((3aS,4R,8R)-6-amino-4,7,7-trimethyl-8-oxido-3,3a,4,7-tetrahydro-2H-isothiazolo[1,5-a][1,4]thiazin-4-yl)-4-fluorophenyl)-5-(2,2,3,3-tetrafluoropropoxy)picolinamide]
0.2 nM | CC1(C)C(N)=N[C@](C)(c2cc(NC(=O)c3ccc(C#N)cn3)ccc2F)[C@@H]2CCN=[S@@]21=O [Example 16AB, N-(3-((3aS,4R,8R)-6-amino-4,7,7-trimethyl-8-oxido-3,3a,4,7-tetrahydro-2H-isothiazolo[1,5-a][1,4]thiazin-4-yl)-4-fluorophenyl)-5-cyanopicolinamide]
0.2 nM | CC1(C)C(N)=N[C@](C)(c2cc(NC(=O)c3ccc(Cl)cn3)ccc2F)[C@@H]2CCN=[S@@]21=O [Example 18AB, N-(3-((3aS,4R,8R)-6-amino-4,7,7-trimethyl-8-oxido-3,3a,4,7-tetrahydro-2H-isothiazolo[1,5-a][1,4]thiazin-4-yl)-4-fluorophenyl)-5-chloropicolinamide]
1.3 nM | CC1(C)C(N)=N[C@](C)(c2cc(NC(=O)c3ncc(F)cc3F)ccc2F)[C@@H]2CCN=[S@@]21=O [Example 19AB, N-(3-((3aS,4R,8R)-6-amino-4,7,7-trimethyl-8-oxido-3,3a,4,7-tetrahydro-2H-isothiazolo[1,5-a][1,4]thiazin-4-yl)-4-fluorophenyl)-3,5-difluoropicolinamide]
0.4 nM | Cc1ccc(C(=O)Nc2ccc(F)c([C@@]3(C)N=C(N)C(C)(C)[S@@]4(=O)=NCC[C@@H]34)c2)nc1 [Example 20AB, N-(3-((3aS,4R,8R)-6-amino-4,7,7-trimethyl-8-oxido-3,3a,4,7-tetrahydro-2H-isothiazolo[1,5-a][1,4]thiazin-4-yl)-4-fluorophenyl)-5-methylpicolinamide]
914 nM | Cc1ncc(C(=O)Nc2ccc(F)c([C@@]3(C)N=C(N)C(C)(C)[S@@]4(=O)=NCC[C@@H]34)c2)cn1 [Example 21AB, N-(3-((3aS,4R,8R)-6-amino-4,7,7-trimethyl-8-oxido-3,3a,4,7-tetrahydro-2H-isothiazolo[1,5-a][1,4]thiazin-4-yl)-4-fluorophenyl)-2-methylpyrimidine-5-carboxamide]
0.2 nM | Cc1cnc(C(=O)Nc2ccc(F)c([C@@]3(C)N=C(N)C(C)(C)[S@@]4(=O)=NCC[C@@H]34)c2)c(C)c1 [Example 23AB, N-(3-((3aS,4R,8R)-6-amino-4,7,7-trimethyl-8-oxido-3,3a,4,7-tetrahydro-2H-isothiazolo[1,5-a][1,4]thiazin-4-yl)-4-fluorophenyl)-3,5-dimethylpicolinamide]
0.7 nM | COc1ccc(C(=O)Nc2ccc(F)c([C@@]3(C)N=C(N)C(C)(C)[S@@]4(=O)=NCC[C@@H]34)c2)nc1 [Example 24AB, N-(3-((3aS,4R,8R)-6-amino-4,7,7-trimethyl-8-oxido-3,3a,4,7-tetrahydro-2H-isothiazolo[1,5-a][1,4]thiazin-4-yl)-4-fluorophenyl)-5-methoxypicolinamide]

The next lines start with the molecule.

Compound | IC50
CC1(C)C(N)=N[C@](C)(c2cc(NC(=O)c3ccc(OC(F)F)cn3)ccc2F)[C@@H]2CCN=[S@@]21=O [Example 5AB, N-(3-((3aS,4R,8R)-6-amino-4,7,7-trimethyl-8-oxido-3,3a,4,7-tetrahydro-2H-isothiazolo[1,5-a][1,4]thiazin-4-yl)-4-fluorophenyl)-5-(difluoromethoxy)picolinamide] | 0.6 nM
CC1(C)C(N)=N[C@](C)(c2cc(NC(=O)c3nn(C(F)F)cc3Cl)ccc2F)[C@@H]2CCN=[S@@]21=O [Example 6AB, N-(3-((3aS,4R,8R)-6-amino-4,7,7-trimethyl-8-oxido-3,3a,4,7-tetrahydro-2H-isothiazolo[1,5-a][1,4]thiazin-4-yl)-4-fluorophenyl)-4-chloro-1-(difluoromethyl)-1H-pyrazole-3-carboxamide] | 1.1 nM
CC1(C)C(N)=N[C@](C)(c2cc(NC(=O)c3ncc(C(F)(F)F)cc3Cl)ccc2F)[C@@H]2CCN=[S@@]21=O [Example 8AB, N-(3-((3aS,4R,8R)-6-amino-4,7,7-trimethyl-8-oxido-3,3a,4,7-tetrahydro-2H-isothiazolo[1,5-a][1,4]thiazin-4-yl)-4-fluorophenyl)-3-chloro-5-(trifluoromethyl)picolinamide] | 0.3 nM
Cc1cc(C#N)ccc1C(=O)Nc1ccc(F)c([C@@]2(C)N=C(N)C(C)(C)[S@@]3(=O)=NCC[C@@H]23)c1 [Example 9AB, N-(3-((3aS,4R,8R)-6-amino-4,7,7-trimethyl-8-oxido-3,3a,4,7-tetrahydro-2H-isothiazolo[1,5-a][1,4]thiazin-4-yl)-4-fluorophenyl)-4-cyano-2-methylbenzamide] | 12.3 nM
CC1(C)C(N)=N[C@](C)(c2cc(NC(=O)c3ccc(OCC(F)F)cn3)ccc2F)[C@@H]2CCN=[S@@]21=O [Example 10AB, N-(3-((3aS,4R,8R)-6-amino-4,7,7-trimethyl-8-oxido-3,3a,4,7-tetrahydro-2H-isothiazolo[1,5-a][1,4]thiazin-4-yl)-4-fluorophenyl)-5-(2,2-difluoroethoxy)picolinamide] | 2.2 nM
Cc1cc(OC(F)F)cnc1C(=O)Nc1ccc(F)c([C@@]2(C)N=C(N)C(C)(C)[S@@]3(=O)=NCC[C@@H]23)c1 [Example 11AB, N-(3-((3aS,4R,8R)-6-amino-4,7,7-trimethyl-8-oxido-3,3a,4,7-tetrahydro-2H-isothiazolo[1,5-a][1,4]thiazin-4-yl)-4-fluorophenyl)-5-(difluoromethoxy)-3-methylpicolinamide] | 0.2 nM
